Measured values published in US7217730B2, “Method for the use of pyranoindole derivatives to treat infection with Hepatitis C virus” (Wyeth, priority 2002, dated 2007).
Read-outs that look alike come from different tables or passages of the source.

Target: T1, NS5B from the BK strain (genotype 1b) (Hepatitis C virus genotype 1b, UniProt P26663)
T1 construct: NS5B from the BK strain (genotype 1b) is expressed in E. coli as a protein in which the 21 C-terminal amino acids are replaced; made in house; host or cells: E. coli
Assay: Hepatitis C polymerase inhibition, NS5B BK strain, 33P-GTP filter assay
Assay type: biochemical
Conditions: for inhibition at 20 µM: read-out: HCV pol % inh at 20 μM; for IC50: NS5B BK strain, read-out: HCV pol BK IC50
In short: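 E. coli-expressed NS5B (BK, genotype 1b) with the 21 C-terminal residues replaced by a linker-His6 tag was preincubated with compound for 15 min at room temperature. It then extended a hairpin-primed heteropolymeric RNA (~3 nM, ~760 nt product) with α-[33P]-GTP for 2 h at 22–25° C. The reaction was stopped with EDTA, and incorporated label was counted on filters.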

T1 sequence (P26663 2420-2989): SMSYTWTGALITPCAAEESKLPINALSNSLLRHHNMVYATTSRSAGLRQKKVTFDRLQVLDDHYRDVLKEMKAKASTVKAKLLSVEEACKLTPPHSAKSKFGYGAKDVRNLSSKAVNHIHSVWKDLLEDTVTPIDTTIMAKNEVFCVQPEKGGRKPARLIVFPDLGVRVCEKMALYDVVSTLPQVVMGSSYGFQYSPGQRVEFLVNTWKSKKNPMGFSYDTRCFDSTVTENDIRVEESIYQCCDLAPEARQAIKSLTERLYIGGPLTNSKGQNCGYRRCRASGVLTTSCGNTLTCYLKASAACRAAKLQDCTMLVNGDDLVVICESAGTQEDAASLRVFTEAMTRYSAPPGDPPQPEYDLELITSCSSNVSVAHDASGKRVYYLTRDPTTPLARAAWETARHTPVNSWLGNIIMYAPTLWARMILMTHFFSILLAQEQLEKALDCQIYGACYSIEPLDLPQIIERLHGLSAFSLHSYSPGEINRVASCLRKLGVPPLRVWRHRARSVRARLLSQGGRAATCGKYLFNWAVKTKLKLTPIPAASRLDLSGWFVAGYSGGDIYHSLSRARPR

CC(C)C1(CC(=O)O)OCCc2c1[nH]c1c(Br)cccc21 (stereo not drawn) [Example 83, (8-bromo-1-isopropyl-1,3,4,9-tetrahydropyrano[3,4-b]indol-1-yl)acetic acid]
inhibition at 20 µM (Table 1A, 20 μM compound): 41% | IC50 (Table 1A): > 20 µM

CCCCC1(CC(=O)O)OCCc2c1[nH]c1c(Br)cccc21 (stereo not drawn) [Example 84, (8-bromo-1-butyl-1,3,4,9-tetrahydropyrano[3,4-b]indol-1-yl)acetic acid]
inhibition at 20 µM (Table 1A, 20 μM compound): 46% | IC50 (Table 1A): 19.7 µM

C/C=C/CCC1(CC(=O)O)OCCc2c1[nH]c1c(Br)cccc21 (stereo not drawn) [Example 85, {8-bromo-1-[(3E)-pent-3-enyl]-1,3,4,9-tetrahydropyrano[3,4-b]indol-1-yl}acetic acid]
inhibition at 20 µM (Table 1A, 20 μM compound): 18% | IC50 (Table 1A): > 20 µM

O=C(O)CC1(c2ccccc2)OCCc2c1[nH]c1c(Br)cccc21 (stereo not drawn) [Example 86, (8-bromo-1-phenyl-1,3,4,9-tetrahydropyrano[3,4-b]indol-1-yl)acetic acid]
inhibition at 20 µM (Table 1A, 20 μM compound): 20% | IC50 (Table 1A): > 20 µM

O=C(O)CC1(c2ccc(C(=O)O)cc2)OCCc2c1[nH]c1c(Br)cccc21 (stereo not drawn) [Example 87, 4-[8-bromo-1-(carboxymethyl)-1,3,4,9-tetrahydropyrano[3,4-b]indol-1-yl]benzoic acid]
inhibition at 20 µM (Table 1A, 20 μM compound): 42% | IC50 (Table 1A): > 20 µM

O=C(O)CC1(c2ccoc2)OCCc2c1[nH]c1c(Br)cccc21 (stereo not drawn) [Example 88, [8-bromo-1-(3-furyl)-1,3,4,9-tetrahydropyrano[3,4-b]indol-1-yl]acetic acid]
inhibition at 20 µM (Table 1A, 20 μM compound): 30% | IC50 (Table 1A): > 20 µM

CCCC1(CC(=O)O)OCCc2c1[nH]c1c(-c3ccccc3)cccc21 (stereo not drawn) [Example 89, (8-phenyl-1-propyl-1,3,4,9-tetrahydropyrano[3,4-b]indol-1-yl)acetic acid]
inhibition at 20 µM (Table 1A, 20 μM compound): 36% | IC50 (Table 1A): > 20 µM

CCCC1(CC(=O)O)OCCc2c1[nH]c1c(-c3ccc(C)cc3)cccc21 (stereo not drawn) [Example 90, [8-(4-methylphenyl)-1-propyl-1,3,4,9-tetrahydropyrano[3,4-b]indol-1-yl]acetic acid]
inhibition at 20 µM (Table 1A, 20 μM compound): 2% | IC50 (Table 1A): > 20 µM

CCCC1(CC(=O)O)OCCc2c1[nH]c1c(-c3ccc(OC)cc3)cccc21 (stereo not drawn) [Example 91, [8-(4-methoxyphenyl)-1-propyl-1,3,4,9-tetrahydropyrano[3,4-b]indol-1-yl]acetic acid]
inhibition at 20 µM (Table 1A, 20 μM compound): < 5% | IC50 (Table 1A): > 20 µM

CCCC1(CC(=O)O)OCCc2c1[nH]c1c(-c3ccc(Cl)cc3)cccc21 (stereo not drawn) [Example 92, [8-(4-chlorophenyl)-1-propyl-1,3,4,9-tetrahydropyrano[3,4-b]indol-1-yl]acetic acid]
inhibition at 20 µM (Table 1A, 20 μM compound): 35% | IC50 (Table 1A): > 20 µM

CCCC1(CC(=O)O)OCCc2c1[nH]c1c(-c3ccc(Cl)cc3Cl)cccc21 (stereo not drawn) [Example 93, [8-(2,4-dichlorophenyl)-1-propyl-1,3,4,9-tetrahydropyrano[3,4-b]indol-1-yl]acetic acid]
inhibition at 20 µM (Table 1A, 20 μM compound): 64% | IC50 (Table 1A): > 20 µM

CCCC1(CC(=O)O)OCCc2c1[nH]c1c(-c3ccc(C(F)(F)F)cc3)cccc21 (stereo not drawn) [Example 94, {1-propyl-8-[4-(trifluoromethyl)phenyl]-1,3,4,9-tetrahydropyrano[3,4-b]indol-1-yl}acetic acid]
inhibition at 20 µM (Table 1A, 20 μM compound): 33% | IC50 (Table 1A): > 20 µM

CCCC1(CC(=O)O)OCCc2c1[nH]c1c(-c3cccc(Br)c3)cccc21 (stereo not drawn) [Example 96, [8-(3-bromophenyl)-1-propyl-1,3,4,9-tetrahydropyrano[3,4-b]indol-1-yl]acetic acid]
inhibition at 20 µM (Table 1A, 20 μM compound): 37% | IC50 (Table 1A): > 20 µM

CCCC1(CC(=O)O)OCCc2c1[nH]c1c(-c3cccc(N)c3)cccc21 (stereo not drawn) [Example 97, [8-(3-aminophenyl)-1-propyl-1,3,4,9-tetrahydropyrano[3,4-b]indol-1-yl]acetic acid]
inhibition at 20 µM (Table 1A, 20 μM compound): 21% | IC50 (Table 1A): > 20 µM

CCCC1(CC(=O)O)OCCc2c1[nH]c1c(C#N)cccc21 (stereo not drawn) [Example 98, (8-cyano-1-propyl-1,3,4,9-tetrahydropyrano[3,4-b]indol-1-yl)acetic acid]
inhibition at 20 µM (Table 1A, 20 μM compound): 44% | IC50 (Table 1A): > 20 µM

CC1(CC(=O)O)OCCc2c1[nH]c1c(Cl)cc(Cl)cc21 (stereo not drawn) [Example 99, (6,8-dichloro-1-methyl-1,3,4,9-tetrahydropyrano[3,4-b]indol-1-yl)acetic acid]
inhibition at 20 µM (Table 1A, 20 μM compound): 32% | IC50 (Table 1A): > 20 µM

CCC1(CC(=O)O)OCCc2c1[nH]c1c(Cl)cc(Cl)cc21 (stereo not drawn) [Example 100, (6,8-dichloro-1-ethyl-1,3,4,9-tetrahydropyrano[3,4-b]indol-1-yl)acetic acid]
inhibition at 20 µM (Table 1A, 20 μM compound): 54% | IC50 (Table 1A): > 20 µM

CCCC1(CC(=O)O)OCCc2c1[nH]c1c(Cl)cc(Cl)cc21 (stereo not drawn) [Example 101, (6,8-dichloro-1-propyl-1,3,4,9-tetrahydropyrano[3,4-b]indol-1-yl)acetic acid]
inhibition at 20 µM (Table 1A, 20 μM compound): 89% | IC50 (Table 1A): 1.5 µM

CC(C)C1(CC(=O)O)OCCc2c1[nH]c1c(Cl)cc(Cl)cc21 (stereo not drawn) [Example 102, (6,8-dichloro-1-isopropyl-1,3,4,9-tetrahydropyrano[3,4-b]indol-1-yl)acetic acid]
inhibition at 20 µM (Table 1A, 20 μM compound): 51% | IC50 (Table 1A): 21.7 µM

CCCCC1(CC(=O)O)OCCc2c1[nH]c1c(Cl)cc(Cl)cc21 (stereo not drawn) [Example 103, (1-butyl-6,8-dichloro-1,3,4,9-tetrahydropyrano[3,4-b]indol-1-yl)acetic acid]
inhibition at 20 µM (Table 1A, 20 μM compound): 60% | IC50 (Table 1A): 14.4 µM

C/C=C/CCC1(CC(=O)O)OCCc2c1[nH]c1c(Cl)cc(Cl)cc21 (stereo not drawn) [Example 104, {6,8-dichloro-1-[(3E)-pent-3-enyl]-1,3,4,9-tetrahydropyrano[3,4-b]indol-1-yl}acetic acid]
inhibition at 20 µM (Table 1A, 20 μM compound): < 5% | IC50 (Table 1A): > 20 µM

O=C(O)CC1(c2ccccc2)OCCc2c1[nH]c1c(Cl)cc(Cl)cc21 (stereo not drawn) [Example 105, (6,8-dichloro-1-phenyl-1,3,4,9-tetrahydropyrano[3,4-b]indol-1-yl)acetic acid]
inhibition at 20 µM (Table 1A, 20 μM compound): 57% | IC50 (Table 1A): > 5 µM

O=C(O)CC1(c2ccc(C(=O)O)cc2)OCCc2c1[nH]c1c(Cl)cc(Cl)cc21 (stereo not drawn) [Example 106, 4-[1-(carboxymethyl)-6,8-dichloro-1,3,4,9-tetrahydropyrano[3,4-b]indol-1-yl]benzoic acid]
inhibition at 20 µM (Table 1A, 20 μM compound): 71% | IC50 (Table 1A): 2.3 µM

CC1(CC(=O)O)OCCc2c1[nH]c1ccc(Cl)c(Cl)c21 (stereo not drawn) [Example 107, (5,6-dichloro-1-methyl-1,3,4,9-tetrahydropyrano[3,4-b]indol-1-yl)acetic acid]
inhibition at 20 µM (Table 1A, 20 μM compound): 50% | IC50 (Table 1A): 19.1 µM

O=C(O)CC1(c2ccc(C(=O)O)cc2)OCCc2c1[nH]c1ccc(Cl)c(Cl)c21 (stereo not drawn) [Example 113, 4-[1-(carboxymethyl)-5,6-dichloro-1,3,4,9-tetrahydropyrano[3,4-b]indol-1-yl]benzoic acid]
IC50 (Table 1A): 0.26 µM | inhibition at 20 µM: 35%

CC1(CC(=O)O)OCCc2c1[nH]c1cc(Cl)cc(Cl)c21 (stereo not drawn) [Example 114, (5,7-dichloro-1-methyl-1,3,4,9-tetrahydropyrano[3,4-b]indol-1-yl)acetic acid]
inhibition at 20 µM (Table 1A, 20 μM compound): 57% | IC50 (Table 1A): > 20 µM

CC1(CC(=O)O)OCCc2c1[nH]c1c(C(F)(F)F)cccc21 (stereo not drawn) [Example 115, [1-methyl-8-(trifluoromethyl)-1,3,4,9-tetrahydropyrano[3,4-b]indol-1-yl]acetic acid]
inhibition at 20 µM (Table 1A, 20 μM compound): 40% | IC50 (Table 1A): > 20 µM

CCC1(CC(=O)O)OCCc2c1[nH]c1c(C(F)(F)F)cccc21 (stereo not drawn) [Example 116, [1-ethyl-8-(trifluoromethyl)-1,3,4,9-tetrahydropyrano[3,4-b]indol-1-yl]acetic acid]
inhibition at 20 µM (Table 1A, 20 μM compound): 34% | IC50 (Table 1A): > 20 µM

CCCC1(CC(=O)O)OCCc2c1[nH]c1c(C(F)(F)F)cccc21 (stereo not drawn) [Example 117, [1-propyl-8-(trifluoromethyl)-1,3,4,9-tetrahydropyrano[3,4-b]indol-1-yl]acetic acid]
inhibition at 20 µM (Table 1A, 20 μM compound): 39% | IC50 (Table 1A): 9.6 µM

CC(C)C1(CC(=O)O)OCCc2c1[nH]c1c(C(F)(F)F)cccc21 (stereo not drawn) [Example 118, [1-isopropyl-8-(trifluoromethyl)-1,3,4,9-tetrahydropyrano[3,4-b]indol-1-yl]acetic acid]
inhibition at 20 µM (Table 1A, 20 μM compound): 10% | IC50 (Table 1A): > 20 µM

CCCCC1(CC(=O)O)OCCc2c1[nH]c1c(C(F)(F)F)cccc21 (stereo not drawn) [Example 119, [1-butyl-8-(trifluoromethyl)-1,3,4,9-tetrahydropyrano[3,4-b]indol-1-yl]acetic acid]
inhibition at 20 µM (Table 1A, 20 μM compound): 31% | IC50 (Table 1A): > 20 µM

C/C=C/CCC1(CC(=O)O)OCCc2c1[nH]c1c(C(F)(F)F)cccc21 (stereo not drawn) [Example 120, [1-[(3E)-pent-3-enyl]-8-(trifluoromethyl)-1,3,4,9-tetrahydropyrano[3,4-b]indol-1-yl]acetic acid]
inhibition at 20 µM (Table 1A, 20 μM compound): 33% | IC50 (Table 1A): > 20 µM

O=C(O)CC1(c2ccccc2)OCCc2c1[nH]c1c(C(F)(F)F)cccc21 (stereo not drawn) [Example 121, [1-phenyl-8-(trifluoromethyl)-1,3,4,9-tetrahydropyrano[3,4-b]indol-1-yl]acetic acid]
inhibition at 20 µM (Table 1A, 20 μM compound): < 5% | IC50 (Table 1A): > 20 µM

CC1(CC(=O)O)OCCc2c1[nH]c1c(F)ccc(F)c21 (stereo not drawn) [Example 122, (5,8-difluoro-1-methyl-1,3,4,9-tetrahydropyrano[3,4-b]indol-1-yl)acetic acid]
inhibition at 20 µM (Table 1A, 20 μM compound): 5% | IC50 (Table 1A): > 20 µM

CCC1(CC(=O)O)OCCc2c1[nH]c1c(F)ccc(F)c21 (stereo not drawn) [Example 123, (1-ethyl-5,8-difluoro-1,3,4,9-tetrahydro-pyrano[3,4-b]indol-1-yl)acetic acid]
inhibition at 20 µM (Table 1A, 20 μM compound): 51% | IC50 (Table 1A): > 20 µM

CCCC1(CC(=O)O)OCCc2c1[nH]c1c(F)ccc(F)c21 (stereo not drawn) [Example 124, (5,8-difluoro-1-propyl-1,3,4,9-tetrahydro-pyrano[3,4-b]indol-1-yl)acetic acid]
inhibition at 20 µM (Table 1A, 20 μM compound): 61% | IC50 (Table 1A): 6.7 µM
